According to US20240261333A1, “NOVEL TARGETS FOR ENHANCING ANTI-TUMOR IMMUNITY” (THE BROAD INSTITUTE, INC., priority 2021, published 2024):

Columns and labels:
[1] = test system: CCLF_MELM_0011_T primary patient-derived melanoma model; assay: T cell cytotoxicity assay, primary patient-derived melanoma model against AXL or HER2 CAR T cells; assay type: cell-based, human; conditions: CCLF_MELM_0011_T treated with small molecule inhibitor
Procedure: Expanded T cells were thawed and maintained in culture media for 8-10 h before incubation with cancer cells. Cancer cells were seeded in 96-well plates and allowed to attach for 3-4 h before T cells were added at the appropriate effector to target cell (E:T) ratio. Paired controls with no T cells added were included for each condition. After 18 h, cancer cells were washed twice with PBS to remove T cells, passaged, and cultured for 2 days. Primary patient-derived cell models were not passaged after T cell co-culture. Viability was measured using CellTiter-Glo (Promega G7571). For each E:T ratio, percent survival was calculated as viability of the cells incubated with T cells divided by viability of the paired control that was not incubated with T cells. For example, CD274-overexpressing melanoma cells that were co-cultured with ESO T cells were compared to CD274-overexpressing melanoma cells that were cultured without T cells in parallel. As an alternative cytotoxicity assay, A375 cells stably expressing Gaussia luciferase were co-cultured with ESO T cells. At each time point, 10% of cell culture media was used for the Gaussia luciferase assay (Targeting Systems GAR-2B) to directly measure cytotoxicity. […]

[2] = biological target: Golgi Class I mannosidases IA, IB and IC; conditions: cited from earlier work

Q: Which results are given for `O=C1N[C@@H]2[C@@H](O)[C@@H](O)[C@H](O)[C@@H](CO)N2C1=O` [kifunensine]?
A: Cell survival against T cell cytotoxicity, primary patient-derived melanoma model [1]: reduced survival; Ki [2]: 23 nM
